# Laboratory results taken from patent US9708334B2, “Substituted 2,4,5,6-tetrahydropyrrolo[3,4-c]pyrazole and 4,5,6,7-tetrahydro-2H-pyrazolo[4,3-c]pyridine compounds as GlyT1 inhibitors” (DART NEUROSCIENCE (CAYMAN) LTD., priority 2014, dated 2017).
# Molecular target: T1, GlyT1 (Homo sapiens, UniProt P48067)
# T1 construct: expressed in transfected cells
# T1 sequence (P48067 1-706): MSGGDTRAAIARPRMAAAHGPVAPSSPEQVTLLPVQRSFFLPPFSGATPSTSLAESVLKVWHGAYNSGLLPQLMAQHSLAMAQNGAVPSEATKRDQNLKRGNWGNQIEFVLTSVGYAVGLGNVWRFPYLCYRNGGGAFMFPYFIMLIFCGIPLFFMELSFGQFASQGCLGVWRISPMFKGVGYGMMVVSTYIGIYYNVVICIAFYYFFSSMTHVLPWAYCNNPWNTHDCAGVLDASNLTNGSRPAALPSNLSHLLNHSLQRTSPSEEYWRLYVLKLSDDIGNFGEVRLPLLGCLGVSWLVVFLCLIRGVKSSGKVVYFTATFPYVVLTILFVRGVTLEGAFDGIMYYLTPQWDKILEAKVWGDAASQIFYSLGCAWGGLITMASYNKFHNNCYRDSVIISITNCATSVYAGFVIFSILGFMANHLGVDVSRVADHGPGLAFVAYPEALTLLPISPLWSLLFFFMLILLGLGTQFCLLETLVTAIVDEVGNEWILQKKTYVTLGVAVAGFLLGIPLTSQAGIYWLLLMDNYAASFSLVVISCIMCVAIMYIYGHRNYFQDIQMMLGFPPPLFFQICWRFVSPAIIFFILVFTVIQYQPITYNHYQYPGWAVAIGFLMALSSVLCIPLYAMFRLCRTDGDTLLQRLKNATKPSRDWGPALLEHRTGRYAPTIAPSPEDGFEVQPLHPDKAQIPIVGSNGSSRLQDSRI
# Assay: Glycine Transporter 1 (GlyT1) uptake assay, scintillation proximity assay of [14C]-glycine uptake
# Assay type: cell-based
# Conditions: SPA, four parameter logistic fit, read-out: GlyT1 (pIC50) (converted)
# Outline: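 [14C]-glycine uptake read by scintillation proximity on a plate counter. IC50 from four-parameter logistic fit of dose-response data.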
row,SMILES,IC50 [nM]
1,"CNC(=O)c1ccc(OC(C)C(F)(F)F)c(C(=O)N2CCc3nn(-c4ccc(F)cc4)cc3C2)c1 (stereo not shown) [Example 482, 3-[2-(4-Fluorophenyl)-2H 4H 5H 6H 7H-pyrazolo[4,3-c]pyridine-5-carbonyl]-N-methyl-4-[(1 1 1-trifluoropropan-2-yl)oxy]benzamide]",100 to 1000
2,"COc1c(C(N)=O)ccc(OC(C)C(F)(F)F)c1C(=O)N1CCc2nn(-c3ccc(F)cc3)cc2C1 (stereo not shown) [Example 483, 3-[2-(4-Fluorophenyl)-2H 4H 5H 6H 7H-pyrazolo[4,3-c]pyridine-5-carbonyl]-2-methoxy-4-[(1 1 1-trifluoropropan-2-yl)oxy]benzamide]",1000 to 10000
3,"CC(Oc1ccc(C(N)=O)c(Cl)c1C(=O)N1Cc2cn(-c3ccc(F)cc3)nc2C1)C(F)(F)F (stereo not shown) [Example 484, 2-Chloro-3-[2-(4-fluorophenyl)-2H 4H 5H 6H-pyrrolo[3,4-c]pyrazole-5-carbonyl]-4-[(1 1 1-trifluoropropan-2-yl)oxy]benzamide]",< 100
4,COc1c(C#N)ccc(C2CCCC2)c1C(=O)N1CCc2nn(-c3ccccc3)cc2C1 [Example 485],< 100
5,"COc1c(C#N)ccc(C2CCCC2)c1C(=O)N1CCc2nn(-c3ccc(F)cc3)cc2C1 [Example 486, 4-Cyclopentyl-3-[2-(4-fluorophenyl)-2H 4H 5H 6H 7H-pyrazolo[4,3-c]pyridine-5-carbonyl]-2-methoxybenzonitrile]",< 100
6,COc1c(C#N)ccc(C2(F)COC2)c1C(=O)N1CCc2nn(-c3ccccc3)cc2C1 [Example 487],1000 to 10000
7,"COc1c(C#N)ccc(C2CCC2)c1C(=O)N1CCc2nn(-c3ccccc3)cc2C1 [Example 488, 4-Cyclobutyl-2-methoxy-3-{2-phenyl-2H 4H 5H 6H 7H-pyrazolo[4,3-c]pyridine-5-carbonyl}benzonitrile]",100 to 1000
8,"COc1c(C#N)ccc(C2(F)CCC2)c1C(=O)N1CCc2nn(-c3ccc(F)cc3)cc2C1 [Example 489, 4-(1-Fluorocyclobutyl)-3-[2-(4-fluorophenyl)-2H 4H 5H 6H 7H-pyrazolo[4,3-c]pyridine-5-carbonyl]-2-methoxybenzonitrile]",100 to 1000
9,"COc1c(C#N)ccc(C2(F)CCCC2)c1C(=O)N1CCc2nn(-c3ccccc3)cc2C1 [Example 490, 4-(1-Fluorocyclopentyl)-2-methoxy-3-{2-phenyl-2H 4H 5H 6H 7H-pyrazolo[4,3-c]pyridine-5-carbonyl}benzonitrile]",< 100
10,"COc1c(C#N)ccc(C2(F)CCCC2)c1C(=O)N1CCc2nn(-c3ccc(F)cc3)cc2C1 [Example 491, 4-(1-Fluorocyclopentyl)-3-[2-(4-fluorophenyl)-2H 4H 5H 6H 7H-pyrazolo[4,3-c]pyridine-5-carbonyl]-2-methoxybenzonitrile]",< 100
11,COc1c(C#N)ccc(C2(F)CCOCC2)c1C(=O)N1CCc2nn(-c3ccc(F)cc3)cc2C1 [Example 492],100 to 1000
12,"COc1c(C#N)ccc(C2(OC)CCC2)c1C(=O)N1CCc2nn(-c3ccc(F)cc3)cc2C1 [Example 493, 3-[2-(4-Fluorophenyl)-2H 4H 5H 6H 7H-pyrazolo[4,3-c]pyridine-5-carbonyl]-2-methoxy-4-(1-methoxycyclobutyl)benzonitrile]",1000 to 10000
13,"COc1c(C#N)ccc(C2CCCC2)c1C(=O)N1Cc2cn(-c3ccc(F)cc3)nc2C1 [Example 494, 4-Cyclopentyl-3-[2-(4-fluorophenyl)-2H 4H 5H 6H-pyrrolo[3,4-c]pyrazole-5-carbonyl]-2-methoxybenzonitrile]",< 100
14,"COc1c(C#N)ccc(C2CCCC2)c1C(=O)N1Cc2cn(-c3cncc(F)c3)nc2C1 [Example 495, 4-Cyclopentyl-3-[2-(5-fluoropyridin-3-yl)-2H 4H 5H 6H-pyrrolo[3,4-c]pyrazole-5-carbonyl]-2-methoxybenzonitrile]",< 100
15,"CS(=O)(=O)c1ccc(N2CCC(F)(F)C2)c(C(=O)N2CCc3nn(-c4ccccc4)cc3C2)c1 [Example 496, 3 3-Difluoro-1-(4-methanesulfonyl-2-{2-phenyl-2H 4H 5H 6H 7H-pyrazolo[4,3-c]pyridine-5-carbonyl}phenyl)pyrrolidine]",100 to 1000
16,"CC(C)(C)COc1ccc(S(C)(=O)=O)cc1C(=O)N1CCc2nn(-c3ccccc3)cc2C1 [Example 497, 5-[2-(2 2-Dimethylpropoxy)-5-methanesulfonylbenzoyl]-2-phenyl-2H 4H 5H 6H 7H-pyrazolo[4,3-c]pyridine]",100 to 1000

row,SMILES,IC50 [nM]
1,"CS(=O)(=O)c1ccc(N2CCCC2)c(C(=O)N2CCc3nn(-c4ccccc4)cc3C2)c1 [Example 498, 1-(4-Methanesulfonyl-2-{2-phenyl-2H 4H 5H 6H 7H-pyrazolo[4,3-c]pyridine-5-carbonyl}phenyl)pyrrolidine]",1000 to 10000
2,"CS(=O)(=O)c1ccc(N2CCC2)c(C(=O)N2CCc3nn(-c4ccccc4)cc3C2)c1 [Example 499, 1-(4-Methanesulfonyl-2-{2-phenyl-2H 4H 5H 6H 7H-pyrazolo[4,3-c]pyridine-5-carbonyl}phenyl)azetidine]",> 10000
3,"CS(=O)(=O)c1ccc(OCC2CC2)c(C(=O)N2CCc3nn(-c4ccccc4)cc3C2)c1 [Example 500, 5-[2-(Cyclopropylmethoxy)-5-methanesulfonylbenzoyl]-2-phenyl-2H 4H 5H 6H 7H-pyrazolo[4,3-c]pyridine]",1000 to 10000
4,"CC(Oc1ccc(C#N)c(Cl)c1C(=O)N1CCc2c(cnn2-c2ccc(F)cc2)C1)C(F)(F)F (stereo not shown) [Example 501, 2-Chloro-3-[1-(4-fluorophenyl)-1H 4H 5H 6H 7H-pyrazolo[4,3-c]pyridine-5-carbonyl]-4-[(1 1 1-trifluoropropan-2-yl)oxy]benzonitrile]",100 to 1000
5,"N#Cc1ccc(N2CCC(F)(F)CC2)c(C(=O)N2CCc3nn(-c4ccccc4)cc3C2)c1Cl [Example 502, 2-Chloro-4-(4 4-difluoropiperidin-1-yl)-3-{2-phenyl-2H 4H 5H 6H 7H-pyrazolo[4,3-c]pyridine-5-carbonyl}benzonitrile]",100 to 1000
6,"CC(C)(C)COc1ccc(C#N)c(Cl)c1C(=O)N1CCc2nn(-c3ccccc3)cc2C1 [Example 503, 2-Chloro-4-(2 2-dimethylpropoxy)-3-{2-phenyl-2H 4H 5H 6H 7H-pyrazolo[4,3-c]pyridine-5-carbonyl}benzonitrile]",100 to 1000
7,"N#Cc1ccc(OCC2CC2)c(C(=O)N2CCc3nn(-c4ccccc4)cc3C2)c1Cl [Example 504, 2-Chloro-4-(cyclopropylmethoxy)-3-{2-phenyl-2H 4H 5H 6H 7H-pyrazolo[4,3-c]pyridine-5-carbonyl}benzonitrile]",1000 to 10000
8,"N#Cc1ccc(N2CCOCC2)c(C(=O)N2CCc3nn(-c4ccccc4)cc3C2)c1Cl [Example 505, 2-Chloro-4-(morpholin-4-yl)-3-{2-phenyl-2H 4H 5H 6H 7H-pyrazolo[4,3-c]pyridine-5-carbonyl}benzonitrile]",1000 to 10000
9,"CC1(COc2ccc(C#N)c(Cl)c2C(=O)N2CCc3nn(-c4ccccc4)cc3C2)COC1 [Example 506, 2-Chloro-4-[(3-methyloxetan-3-yl)methoxy]-3-{2-phenyl-2H 4H 5H 6H 7H-pyrazolo[4,3-c]pyridine-5-carbonyl}benzonitrile]",1000 to 10000
10,"CC1(COc2ccc(C#N)c(Cl)c2C(=O)N2CCc3nn(-c4ccccc4)cc3C2)CC1 [Example 507, 2-Chloro-4-[(1-methylcyclopropyl)methoxy]-3-{2-phenyl-2H 4H 5H 6H 7H-pyrazolo[4,3-c]pyridine-5-carbonyl}benzonitrile]",100 to 1000
11,"CC1(COc2ccc(C#N)c(Cl)c2C(=O)N2CCc3nn(-c4ccc(F)cc4)cc3C2)CC1 [Example 508, 2-Chloro-3-[2-(4-fluorophenyl)-2H 4H 5H 6H 7H-pyrazolo[4,3-c]pyridine-5-carbonyl]-4-[(1-methylcyclopropyl)methoxy]benzonitrile]",100 to 1000
12,"N#Cc1ccc(OCC2(C(F)(F)F)CC2)c(C(=O)N2CCc3nn(-c4ccc(F)cc4)cc3C2)c1Cl [Example 509, 2-Chloro-3-[2-(4-fluorophenyl)-2H 4H 5H 6H 7H-pyrazolo[4,3-c]pyridine-5-carbonyl]-4-{[1-(trifluoromethyl)cyclopropyl]methoxy}benzonitrile]",100 to 1000
13,"COc1c(C#N)ccc(N2CCC(F)(F)CC2)c1C(=O)N1Cc2cn(-c3ccc(F)cc3)nc2C1 [Example 510, 4-(4 4-Difluoropiperidin-1-yl)-3-[2-(4-fluorophenyl)-2H 4H 5H 6H-pyrrolo[3,4-c]pyrazole-5-carbonyl]-2-methoxybenzonitrile]",< 100
14,COc1c(C#N)ccc(OCC(C)(C)C)c1C(=O)N1Cc2cn(-c3ccc(F)cc3)nc2C1 [Example 511],< 100
15,"COc1c(C#N)ccc(OCC2(C)CC2)c1C(=O)N1Cc2cn(-c3ccc(F)cc3)nc2C1 [Example 512, 3-[2-(4-Fluorophenyl)-2H 4H 5H 6H-pyrrolo[3,4-c]pyrazole-5-carbonyl]-2-methoxy-4-[(1-methylcyclopropyl)methoxy]benzonitrile]",< 100
